Patent US5698538A, “Boronic acid and ester inhibitors of thrombin” (The DuPont Merck Pharmaceutical Company, priority 1996, dated 1997)
Where a name gives a salt, the structure may show the parent alone.

How the values were obtained:
Assay type in all cases: biochemical
human thrombin = target: T1, human thrombin (Homo sapiens, UniProt P00734); assay: Inhibition of human thrombin (chromogenic substrate S2238), inhibitory constant Ki; conditions: 0.2-0.5 nM human thrombin, S2238, pH 7.5, 30 minutes; read-out: Ki values for inhibition of Serine Proteases: Thrombin
T1 construct: purchased Enzyme Research Laboratories, South Bend, Ind
Protocol: (§1) The effectiveness of compounds of the present invention as inhibitors of blood coagulation proteases was determined using purified human proteases and synthetic substrates following procedures similar to those described in Kettner et al. (1990).
(§2) For these assays, the rate of enzymatic (thrombin, Factor Xa, and Factor VIIa) hydrolysis of chromogenic substrates (S2238 (H-D-Phe-Pip-Arg-pNA), S2222, and S2288, respectively; Kabi Pharmacia, Franklin, Ohio.) was measured both in the absence and presence of compounds of the present invention. […] A decrease in the rate of absorbance change at 405 nm in the presence of inhibitor is indicative of enzyme inhibition. The results of this assay are expressed as inhibitory constant, Ki.
(§3) Thrombin and Xa determinations were made in 0.10M sodium phosphate buffer, pH 7.5, containing 0.20M NaCl, and 0.5% PEG 8000. VIIa determinations were made in 0.05M tris buffer, pH 7.6, containing 0.10M NaCl, 4 mM CaCl2, and 0.1% bovine serum albumin. The Michaelis constant, Km, for substrate hydrolysis was determined at 5° C. using the method of Lineweaver and Burk.
(§4) Values of Ki were determined by allowing 0.2-0.5 nM human thrombin or human factor Xa (Enzyme Research Laboratories, South Bend, Ind.), or 50 nM human factor VIIa (BiosPacific, Emeryville, Calif.) react with the substrate (0.20 mM-1 mM) in the presence of inhibitor. Reactions were allowed to go for 30 minutes and the velocities (rate of absorbance change vs time) were measured in the time frame of 25-30 minutes. The following relationship was used to calculate Ki values. [formula] where: vo is the velocity of the control in the absence of inhibitor;
(§5) vs is the velocity in the presence of inhibitor;
(§6) I is the concentration of inhibitor;
(§7) Ki is the dissociation constant of the enzyme: inhibitor complex;
(§8) S is the concentration of substrate;
(§9) Km is the Michaelis constant.

human factor Xa = target: T2, human factor Xa (Homo sapiens, UniProt P00742); assay: Inhibition of human factor Xa (chromogenic substrate S2222), inhibitory constant Ki; conditions: S2222, pH 7.5, 30 minutes, read-out: Ki values for inhibition of Serine Proteases: Factor Xa
T2 construct: purchased Enzyme Research Laboratories, South Bend, Ind
T2 sequence (P00742 235-488 limits assumed): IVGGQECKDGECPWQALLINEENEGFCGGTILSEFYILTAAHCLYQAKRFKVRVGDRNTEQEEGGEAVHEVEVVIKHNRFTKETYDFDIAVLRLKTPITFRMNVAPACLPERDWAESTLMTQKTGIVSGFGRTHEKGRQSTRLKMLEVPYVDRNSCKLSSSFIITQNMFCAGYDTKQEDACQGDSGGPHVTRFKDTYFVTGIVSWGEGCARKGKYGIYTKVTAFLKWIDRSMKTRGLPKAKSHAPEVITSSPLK
T2 sequence (P00742 41-179 partner limits assumed): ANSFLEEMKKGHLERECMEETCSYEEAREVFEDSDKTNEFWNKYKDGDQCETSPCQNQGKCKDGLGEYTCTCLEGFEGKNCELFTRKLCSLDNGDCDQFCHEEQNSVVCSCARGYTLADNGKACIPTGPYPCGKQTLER
Protocol: as §1, §2, §3, §4, §5, §6, §7, §8, §9

human factor VIIa = target: T3, human factor VIIa (Homo sapiens, UniProt P08709); assay: Inhibition of human factor VIIa (chromogenic substrate S2288), inhibitory constant Ki; conditions: 50 nM human factor VIIa, S2288, pH 7.6, 4 mM CaCl2, 30 minutes; read-out: Ki values for inhibition of Serine Proteases: Factor VIIa
T3 construct: Factor VIIa in the extrinsic pathway; purchased BiosPacific, Emeryville, Calif
T3 sequence (P08709 213-466 limits assumed): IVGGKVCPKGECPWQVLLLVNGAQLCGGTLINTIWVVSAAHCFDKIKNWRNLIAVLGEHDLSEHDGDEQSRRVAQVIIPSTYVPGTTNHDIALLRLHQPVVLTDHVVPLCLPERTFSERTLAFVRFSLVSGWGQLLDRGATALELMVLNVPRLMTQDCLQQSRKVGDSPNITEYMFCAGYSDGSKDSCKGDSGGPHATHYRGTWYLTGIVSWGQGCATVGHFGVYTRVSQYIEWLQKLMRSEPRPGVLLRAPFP
T3 sequence (P08709 61-212 partner limits assumed): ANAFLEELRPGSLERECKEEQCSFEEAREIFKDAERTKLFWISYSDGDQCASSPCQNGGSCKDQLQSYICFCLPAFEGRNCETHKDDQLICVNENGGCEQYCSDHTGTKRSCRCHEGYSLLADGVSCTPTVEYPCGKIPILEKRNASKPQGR
Protocol: as §1, §2, §3, §4, §5, §6, §7, §8, §9

Ki (human thrombin)	Ki (human factor Xa)	Ki (human factor VIIa)	Structure (SMILES)
< 500 nM	500 to 50000 nM	500 to 50000 nM	CC1(C)C2CC3OB([C@H](CCCCN)NC(=O)Cn4nc(Cc5ccccc5)nc4-c4ccccc4)OC3(C)C1C2 (stereo partly drawn) [Example 2446]
< 500 nM	500 to 50000 nM	> 500000 nM	NCCCC[C@H](NC(=O)Cn1nc(Cc2ccccc2)nc1-c1ccccc1)B(O)O [Example 2533]

Further lines, the compound ahead of its results:

Structure (SMILES)	Ki (human thrombin)	Ki (human factor Xa)	Ki (human factor VIIa)
COC(=O)Cc1nc(Cc2ccccc2)nn1CC(=O)N[C@@H](CCCCN)B1OC2CC3CC(C3(C)C)C2(C)O1 (stereo partly drawn) [Example 2443]	< 500 nM	500 to 50000 nM	500 to 50000 nM
CC1(C)C2CC3OB([C@H](CCCCN)NC(=O)Cn4nc(Cc5ccccc5)nc4Cc4ccccc4)OC3(C)C1C2 (stereo partly drawn) [Example 2447]	< 500 nM	500 to 50000 nM	500 to 50000 nM
NCCCC[C@H](NC(=O)Cn1cnc(Cc2ccccc2)n1)B(O)O [Example 2499]	< 500 nM	500 to 50000 nM	500 to 50000 nM
Cc1nc(-c2ccccc2)ncc1C(=O)N[C@@H](CCCCN)B1O[C@@H]2C[C@@H]3C[C@@H](C3(C)C)[C@]2(C)O1 [Example 3458, R-N^1-((2-phenyl-4-methylpyrimidin-5-yl)carbonyl)borolysine, (+)-pinanediol ester, hydrochloride]	< 500 nM	> 500000 nM	500 to 50000 nM
Cc1nc(-c2ccccc2)ncc1C(=O)N[C@@H](CCCNC(=N)N)B1O[C@@H]2C[C@@H]3C[C@@H](C3(C)C)[C@]2(C)O1 [Example 3538, R-N^1-((2-phenyl-4-methylpyrimidin-5-yl)carbonyl)boroarginine, (+)-pinanediol ester, hydrochloride]	< 500 nM	500 to 50000 nM	500 to 50000 nM
